Drawing on patent US9790233B2, “Compositions and methods of modulating 15-PGDH activity” (CASE WESTERN RESERVE UNIVERSITY, priority 2012, dated 2017), this text covers activation for 21 molecules.

Assay type in all cases: cell-based
For assay [1], the system named is 15-PGDH luciferase fusion construct in Vaco503 reporter cell line. Put plainly: 15-PGDH-luciferase fusion gene reporter induction, V503 cells.
Assay [2] has as its system 15-PGDH luciferase fusion construct in V9m reporter cell line. Put plainly: 15-PGDH-luciferase fusion gene reporter induction, V9m cells.
Assay [3] concerns 15-PGDH luciferase fusion construct in LS174T reporter cell line. The experiment in a line: 15-PGDH-luciferase fusion gene reporter induction, LS174T cells. The note with it: Homo sapiens.
Where [4] appears, read: read-out: V503-3H9-7 reporter activity, % ([…]), […], Table 18, read-out: V503-3H9-7 reporter activity, % (2.5 μM).
Where [5] appears, read: read-out: V503-3H9-7 reporter activity, % ([…]), […], Table 18, read-out: V503-3H9-7 reporter activity, % (7.5 μM).
Where [6] appears, read: read-out: V9M-SC3 Reporter activity ([…]) (%), […], Table 18, read-out: V9M-SC3 Reporter activity (2.5 μM) (%).
Setting [7] is: read-out: Ls174T-SC1 reporter activity, % ([…]), […], Table 18, read-out: Ls174T-SC1 reporter activity, % (2.5 μM).
The mark [8] stands for this setting: read-out: Ls174T-SC1 reporter activity, % ([…]), […], Table 18, read-out: Ls174T-SC1 reporter activity, % (7.5 μM).
Setting [9] is: read-out: V503-3H9-7 reporter activity, % ([…]), V503 reporter cells, […] compound, % induction of luciferase activity over basal level, read-out: V503-3H9-7 reporter activity, % (2.5 μM).
Where [10] appears, read: read-out: V503-3H9-7 reporter activity, % ([…]), V503 reporter cells, […] compound, % induction of luciferase activity over basal level, read-out: V503-3H9-7 reporter activity, % (7.5 μM).
[11] abbreviates: read-out: V9M-SC3 Reporter activity ([…]) (%), V9m reporter cells, […] compound, % induction of luciferase activity over basal level, read-out: V9M-SC3 Reporter activity (2.5 μM) (%).
Where [12] appears, read: read-out: V9M-SC3 Reporter activity ([…]), %, V9m reporter cells, […] compound, % induction of luciferase activity over basal level, read-out: V9M-SC3 Reporter activity (7.5 μM), %.
[13] abbreviates: read-out: Ls174T-SC1 reporter activity, % ([…]), LS174T reporter cells, […] compound, % induction of luciferase activity over basal level, read-out: Ls174T-SC1 reporter activity, % (2.5 μM).
Setting [14] is: read-out: Ls174T-SC1 reporter activity, % ([…]), LS174T reporter cells, […] compound, % induction of luciferase activity over basal level, read-out: Ls174T-SC1 reporter activity, % (7.5 μM).
Setting [15] is: read-out: V503 reporter activity ([…]), […], % induction over basal level, Table 17, read-out: V503 reporter activity (2.5 μM).
Setting [16] is: read-out: V503 reporter activity ([…]), […], % induction over basal level, Table 17, read-out: V503 reporter activity (7.5 μM).
Setting [17] is: read-out: V9M reporter activity ([…]), […], % induction of luciferase activity over basal level, Table 17, read-out: V9M reporter activity (2.5 μM).
The mark [18] stands for this setting: read-out: V9M reporter activity ([…]), […], % induction over basal level, Table 17, read-out: V9M reporter activity (7.5 μM).
The mark [19] stands for this setting: read-out: LS174T reporter activity ([…]), […], % induction over basal level, Table 17, read-out: LS174T reporter activity (2.5 μM).
Setting [20] is: read-out: lS174T reporter activity ([…]), […], % induction over basal level, Table 17, read-out: lS174T reporter activity (7.5 μM).
The mark [21] stands for this setting: read-out: V503 reporter activity ([…]), […], % increased luciferase activity over basal level, read-out: V503 reporter activity (2.5 uM).
Setting [22] is: read-out: V503 reporter activity ([…]), […], % increased luciferase activity over basal level, read-out: V503 reporter activity (7.5 uM).
[23] abbreviates: read-out: V9M reporter activity ([…]), […], % increased luciferase activity over basal level, 100 = doubling, read-out: V9M reporter activity (2.5 uM).
Setting [24] is: read-out: V9M reporter activity ([…]), […], % increased luciferase activity over basal level, 100 = doubling, read-out: V9M reporter activity (7.5 uM).
The mark [25] stands for this setting: read-out: LS174T reporter activity ([…]), […], % increased luciferase activity over basal level, read-out: LS174T reporter activity (2.5 uM).
[26] abbreviates: read-out: LS174T reporter activity ([…]), […], % increased luciferase activity over basal level, read-out: LS174T reporter activity (7.5 uM).

Like-named read-outs stand apart in the source and are kept apart here.

Regarding `CCc1ccc(N(CC(=O)Nc2cccnc2)S(=O)(=O)c2ccccc2)cc1` [461439−84−9], the activation at […] was 1.57% in assay [1] (setting [4]); 5.41% in assay [1] (setting [5]); -30.3% in assay [2] (setting [6]); 4.83% in assay [3] (setting [7]); -35% in assay [3] (setting [8]).

Consider `COc1ccc(OC)c(N(CC(=O)Nc2cc(C)cnc2Cl)S(=O)(=O)c2ccccc2)c1` [SW202972], for which the activation at […] in assay [1] (setting [9]) was 39.4%; in assay [1] (setting [10]), 100%; in assay [2] (setting [11]), -15.4%; in assay [2] (setting [12]), 0.14%; in assay [3] (setting [13]), -17.4%; in assay [3] (setting [14]) it was 16.6%.

As to `COc1ccc(OC)c(N(CC(=O)Nc2ccc(Cl)cc2)S(=O)(=O)c2ccccc2)c1` [339589-53-6], the activation at […] in assay [1] (setting [4]) was 200%; in assay [1] (setting [5]), 105%; in assay [2] (setting [6]) it was -1%; in assay [3] (setting [7]) it was 51.2%; in assay [3] (setting [8]), 89.7%.

As for `COc1ccc(OC)c(N(CC(=O)Nc2ccc(I)cc2)S(=O)(=O)c2ccc(C)cc2)c1` [compound 771146], the activation at […] in assay [1] (setting [15]) is -49.7%; in assay [1] (setting [16]) it was -86.6%; in assay [2] (setting [17]) it was -38.1%; in assay [2] (setting [18]), -78.3%; in assay [3] (setting [19]) it was -31.6%; in assay [3] (setting [20]), -68.8%.

In the case of `COc1ccc(OC)c(N(CC(=O)Nc2cccnc2)S(C)(=O)=O)c1` [527699−66−7], the activation at […] was 38.8% in assay [1] (setting [4]); 70.9% in assay [1] (setting [5]); -31% in assay [2] (setting [6]); 7.31% in assay [3] (setting [7]); -29.6% in assay [3] (setting [8]).

Turning to `CS(=O)(=O)c1sc2nc(-c3cccs3)cc(-c3ccccc3)c2c1N` [SW033290, 2-(methylsulfonyl)-4-phenyl-6-(thiophen-2-yl)thieno[2,3-b]pyridin-3-amine], the activation at […] in assay [1] (setting [21]) is 30.9%; in assay [1] (setting [22]), 17.7%; in assay [2] (setting [23]), -34.3%; in assay [2] (setting [24]) it was -25.4%; in assay [3] (setting [25]), -0.24%; in assay [3] (setting [26]), -6.58%.

Turning to `COc1ccc(N(CC(=O)Nc2ccc(C(C)=O)cc2)S(=O)(=O)c2ccccc2)cc1Cl` [compound 539430], the activation at […] was 38.8% in assay [1] (setting [15]); 103% in assay [1] (setting [16]); 21.3% in assay [2] (setting [17]); 21.4% in assay [2] (setting [18]); 5.62% in assay [3] (setting [19]); 10.4% in assay [3] (setting [20]).

On to `COc1ccc(OC)c(N(CC(=O)Nc2ccc(Br)cc2F)S(=O)(=O)c2ccc(C)cc2)c1` [compound 1004292], for which the activation at […] is 23.5% in assay [1] (setting [15]); 21.2% in assay [1] (setting [16]); 0.88% in assay [2] (setting [17]); -0.21% in assay [2] (setting [18]); 20.3% in assay [3] (setting [19]); 0.14% in assay [3] (setting [20]).

For the molecule `O=C(CN(c1ccc(F)cc1)S(=O)(=O)c1ccccc1)Nc1cccnc1` [compound 414177], the activation at […] in assay [1] (setting [15]) is -2.8%; in assay [1] (setting [16]), -5.73%; in assay [2] (setting [17]) it was 10.6%; in assay [2] (setting [18]), 7.72%; in assay [3] (setting [19]) it was 9.51%; in assay [3] (setting [20]) it was -0.62%.

For the molecule `COc1ccc(OC)c(N(CC(=O)Nc2ccnc(Cl)c2)S(=O)(=O)c2ccccc2)c1` [SW202946], the activation at […] is 137% in assay [1] (setting [9]); 34.3% in assay [1] (setting [10]); 64.6% in assay [2] (setting [11]); -41.5% in assay [2] (setting [12]); 105% in assay [3] (setting [13]); -23.6% in assay [3] (setting [14]).

For `CCCOC(=O)CN(c1cc(OC)ccc1OC)S(=O)(=O)c1ccccc1` [SW202986], the activation at […] was 60.2% in assay [1] (setting [9]); 175% in assay [1] (setting [10]); -22.9% in assay [2] (setting [11]); -9.6% in assay [2] (setting [12]); 0.21% in assay [3] (setting [13]); 33.8% in assay [3] (setting [14]).

Turning to `COc1ccc(OC)c(N(CC(=O)Nc2cccnc2)S(=O)(=O)c2ccc(C(C)=O)cc2)c1` [SW202950], the activation at […] in assay [1] (setting [9]) was -6.56%; in assay [1] (setting [10]), 12.9%; in assay [2] (setting [11]), 12.6%; in assay [2] (setting [12]), 23.9%; in assay [3] (setting [13]), -2.7%; in assay [3] (setting [14]), 10.7%.

Regarding `COc1ccc(OC)c(N(CC(=O)Nc2ccccc2Br)S(=O)(=O)c2ccc(C)cc2)c1` [compound 771132], the activation at […] was 24.8% in assay [1] (setting [15]); 40.8% in assay [1] (setting [16]); -2.26% in assay [2] (setting [17]); 12.2% in assay [2] (setting [18]); 14% in assay [3] (setting [19]); 13.5% in assay [3] (setting [20]).

In the case of `O=C(CN(c1ccccc1)S(=O)(=O)c1ccccc1)Nc1ccccn1` [compound 414183], the activation at […] in assay [1] (setting [15]) is 11.5%; in assay [1] (setting [16]) it was 37.2%; in assay [2] (setting [17]), -9.15%; in assay [2] (setting [18]) it was -3.89%; in assay [3] (setting [19]) it was 5.35%; in assay [3] (setting [20]), -4.77%.

With `COc1ccc(N(CC(=O)Nc2ccc(Br)cc2)S(=O)(=O)c2ccccc2)c(OC)c1` [compound 785161], the activation at […] is 56.7% in assay [1] (setting [15]); -52.5% in assay [1] (setting [16]); 0.54% in assay [2] (setting [17]); 3.48% in assay [2] (setting [18]); 10.7% in assay [3] (setting [19]); -41.9% in assay [3] (setting [20]).

On to `CCCC[S+]([O-])c1ncccc1N` (stereo not shown) [SW208070, 2-(butylsulfinyl)pyridin-3-amine], for which the activation at […] is 19.7% in assay [1] (setting [21]); 15.4% in assay [1] (setting [22]); 22.6% in assay [2] (setting [23]); 12.1% in assay [2] (setting [24]); 19.7% in assay [3] (setting [25]); 15.4% in assay [3] (setting [26]).

For `COc1cccc(NC(=O)CN(c2cc(OC)ccc2OC)S(=O)(=O)c2ccccc2)c1` [SW202976], the activation at […] is 36.8% in assay [1] (setting [9]); 138% in assay [1] (setting [10]); -18.5% in assay [2] (setting [11]); 9.6% in assay [2] (setting [12]); -9.97% in assay [3] (setting [13]); 30.1% in assay [3] (setting [14]).

For the molecule `O=C(CN(c1ccccc1)S(=O)(=O)c1ccccc1)Nc1cccnc1` [331727−07−2], the activation at […] is 8.13% in assay [1] (setting [4]); 1.14% in assay [1] (setting [5]); 28.2% in assay [2] (setting [6]); -7.53% in assay [3] (setting [7]); 9.47% in assay [3] (setting [8]).

With `COc1ccc(N(CC(=O)Nc2cccnc2)S(=O)(=O)c2ccccc2)cc1` [418783−65−0], the activation at […] in assay [1] (setting [4]) is 11.6%; in assay [1] (setting [5]), 6.68%; in assay [2] (setting [6]), 0.51%; in assay [3] (setting [7]), -12.6%; in assay [3] (setting [8]) it was 5.81%.

As for `CCCCSc1ncccc1N` [SW208068, 2-(butylthio)pyridin-3-amine], the activation at […] stood at 14.9% in assay [1] (setting [21]); 15% in assay [1] (setting [22]); 12.9% in assay [2] (setting [23]); 12.3% in assay [2] (setting [24]); 14.9% in assay [3] (setting [25]); 15% in assay [3] (setting [26]).

Take `COc1ccc(OC)c(N(CC(=O)Nc2cccnc2)S(=O)(=O)c2c(C)cc(C)cc2C)c1` [SW202953]: the activation at […] worked out at 32% in assay [1] (setting [9]); 50.9% in assay [1] (setting [10]); 13% in assay [2] (setting [11]); 34.8% in assay [2] (setting [12]); 20.7% in assay [3] (setting [13]); 30.7% in assay [3] (setting [14]).
